Legend:
[1] = tested on: LSD1-induced activation of AR; assay: Transient transfection, AR-dependent luciferase reporter with co-expressed LSD1 and AR in 293 cells; type: cell-based; settings: R1881, 3×10^−3 M pargyline, 1×10^−3 M deprenyl or 1×10^−4 M chlorgyline, 18 hours, FIG. 4e
Method: 293 and CV-1 cells were cultured and transfected as described^13. LNCaP cells were cultured in phenol-red-free RPMI1640 supplemented with 10% double-stripped fetal calf serum (dsFCS) and transfected with Effectene (Qiagen). The following amounts per well were used: MMTV-LUC, ARE2x-TATA-LUC, ARE2x-TK-LUC, TK-LUC, PSA-LUC, Slp-ARU-TATA-LUC 500 ng each, 25 ng expression plasmids for AR; 500 ng expression plasmids for LSD1 1-174, LSD1 175-246, LSD1 247-852, pSUPER-control, and pSUPER-LSD1; 100 to 500 ng expression plasmids for LSD1 were transfected per well. […] Luciferase activity was assayed as described^14. All experiments were repeated at least five times in duplicate.

[2] = biological target: T1, LSD1 (Homo sapiens, UniProt O60341); assay: Chromatin immunoprecipitation (ChIP) at the PSA promoter in LNCaP cells; type: cell-based
T1 construct: endogenous in cells; host or cells: LNCaP
Method: ChIP experiments were performed essentially as described^15. […] LNCaP cells were transfected three days before harvesting for ChIP with or without siRNA (Qiagen) following the manufacture's instructions. Immunoprecipitation was performed with specific antibodies (α-monoMeK9H3, α-diMeK9H3, α-triMeK9H3, α-monoMeK4H3, α-diMeK4H3, α-triMeK4H3, α-H3 (abcam), α-LSD1, and α-AR PG21 (Upstate Biotechnology) on GammaBind™-Sepharose 4B (GE-Healthcare). For PCR, 1-5 μl out of 50 μl DNA extract was used. For Re-ChIP assays, immunoprecipitations were sequentially washed with TSE I, TSE II, buffer III, and TE^15. Complexes were eluted by incubation with 10 mM DTT at 37° C. for 30 min, diluted 50 times with dilution buffer^15 followed by a second immunoprecipitation with the indicated antibody. Primer sequences were as follows: middle; PSA (−2223/−1951) 5′-[…]-3′ and 5′-[…]-3′; PCR primers for ARE I+II (PSA (−459/−121)) and ARE III (PSA (−4288/−3922)) have been described previously^16.

[3] = pargyline, R1881, FIG. 3d and data not shown

Compound	LSD1-induced ligand-dependent activation of AR (reporter activity) [1]	demethylation of mono- and dimethyl H3-K9 during androgen-induced transcription ([2]; PSA promoter, pargyline 18 hours, 10^−8 M R1881 210 min, FIG. 3d)	methylation levels of trimethyl H3-K9 ([2]; PSA promoter, pargyline 18 hours, R1881, FIG. 3d)	methylation status of H3-K27 [2, 3]	methylation status of H4-K20 [2, 3]
C#CCN(C)CCCOc1ccc(Cl)cc1Cl [clorgyline, N-methyl-N-propargyl-3-(2,4-dichlorophenoxy-)propylamine]	severely impair				
C#CCN(C)Cc1ccccc1 [pargyline, N-methyl-N-2-propynyl-benzylamine]	severely impair	blocks	remains unchanged	remains unchanged	remains unchanged
C#CCN(C)[C@H](C)Cc1ccccc1 [deprenyl, (R)-(−)-N,2-dimethyl-N-2-propynylphenethylamine]	severely impair				

— patent US8680157B2, “Androgen receptor-dependent gene expression control” (Universitaetsklinikum Freiburg, priority 2005, dated 2014)
